Source: ChEMBL document CHEMBL1201862, “PubChem BioAssay data set” (2004)
Structures can show the parent of a compound that is named as a salt.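 Dose response: 5 concentrations. Exposure: 48 h. Format: 96-well plates. Endpoint: linear interpolation; highest concentration if not reached. GI50: concentration for 50% inhibition of growth.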 The source made the active and inactive calls. No stated cut-off is given here; in the data, active = GI50 up to about 1.1 µM and inactive = higher.

Legend:
Assay in all cases: growth of human tumour cells (NCI), 48 h
[1] = test system: ACHN
[2] = test system: CCRF-CEM
[3] = test system: COLO 205
[4] = test system: HCC 2998
[5] = test system: HL-60
[6] = test system: HOP-92
[7] = test system: IGROV-1
[8] = test system: K562
[9] = test system: LOX IMVI
[10] = test system: MOLT-4
[11] = test system: Malme-3M
[12] = test system: NCI-H23
[13] = test system: OVCAR-4
[14] = test system: OVCAR-5
[15] = test system: SF-295
[16] = test system: SR

SMILES | GI50 [1] | GI50 [2] | GI50 [3] | GI50 [4] | GI50 [5] | GI50 [6] | GI50 [7] | GI50 [8] | GI50 [9] | GI50 [10] | GI50 [11] | GI50 [12] | GI50 [13] | GI50 [14] | GI50 [15] | GI50 [16]
O=C1CCC(=O)C1=NNc1cc(Cl)cc(Cl)c1 | > 100 µM (inactive) | 47.8 µM (inactive) | 36.6 µM (inactive) | > 100 µM (inactive) | 63.5 µM (inactive) | > 100 µM (inactive) | > 100 µM (inactive) | > 100 µM (inactive) | > 100 µM (inactive) | 53.8 µM (inactive) | > 100 µM (inactive) | > 100 µM (inactive) | > 100 µM (inactive) | > 100 µM (inactive) | > 100 µM (inactive) | –
O=c1[nH]c(C2CCCCC2)nc2c(Cl)cccc12 | > 100 µM (inactive) | > 100 µM (inactive) | > 100 µM (inactive) | > 100 µM (inactive) | > 100 µM (inactive) | > 100 µM (inactive) | > 100 µM (inactive) | > 100 µM (inactive) | – | – | > 100 µM (inactive) | > 100 µM (inactive) | > 100 µM (inactive) | > 100 µM (inactive) | > 100 µM (inactive) | –
O=c1[nH]c(=O)n(C2CC(O)C(CO)O2)cc1C(F)(C(F)(F)F)C(F)(F)F (configuration not stated) | > 100 µM (inactive) | > 100 µM (inactive) | 71 µM (inactive) | – | > 100 µM (inactive) | > 100 µM (inactive) | > 100 µM (inactive) | > 100 µM (inactive) | > 100 µM (inactive) | > 100 µM (inactive) | > 100 µM (inactive) | > 100 µM (inactive) | > 100 µM (inactive) | > 100 µM (inactive) | > 100 µM (inactive) | > 100 µM (inactive)
CCCCN(CC)C(=O)C(=O)Cc1nc2ccc(C(=O)c3ccccc3)cc2nc1O | 41 µM (inactive) | 27.2 µM (inactive) | > 76.2 µM (inactive) | – | 20.8 µM (inactive) | 53 µM (inactive) | > 100 µM (inactive) | 19.1 µM (inactive) | > 84.7 µM (inactive) | 21.1 µM (inactive) | – | 57.9 µM (inactive) | > 100 µM (inactive) | > 100 µM (inactive) | 59 µM (inactive) | 21.6 µM (inactive)
CN(C)c1ccc(/C=c2\sc3nnc(-c4ccco4)n3c2=O)cc1 | – | > 100 µM (inactive) | > 100 µM (inactive) | > 100 µM (inactive) | > 100 µM (inactive) | > 100 µM (inactive) | > 100 µM (inactive) | > 100 µM (inactive) | > 100 µM (inactive) | > 100 µM (inactive) | > 100 µM (inactive) | > 100 µM (inactive) | > 100 µM (inactive) | > 100 µM (inactive) | > 100 µM (inactive) | –
COc1nc(NC2OC(COC(C)=O)C(OC(C)=O)C(OC(C)=O)C2OC(C)=O)c2c(OC(C)=O)c(C)c(=O)oc2n1 (configuration not stated) | 1.7 µM (inactive) | > 100 µM (inactive) | > 100 µM (inactive) | > 100 µM (inactive) | > 100 µM (inactive) | > 100 µM (inactive) | > 100 µM (inactive) | > 100 µM (inactive) | > 100 µM (inactive) | > 100 µM (inactive) | > 100 µM (inactive) | > 100 µM (inactive) | > 100 µM (inactive) | > 100 µM (inactive) | > 100 µM (inactive) | –
OCC(CO)C1c2cccc3ccc4cccc1c4c23 | > 100 µM (inactive) | > 100 µM (inactive) | > 100 µM (inactive) | – | > 100 µM (inactive) | 80.9 µM (inactive) | > 100 µM (inactive) | > 100 µM (inactive) | > 100 µM (inactive) | > 100 µM (inactive) | > 100 µM (inactive) | > 100 µM (inactive) | > 100 µM (inactive) | > 100 µM (inactive) | > 100 µM (inactive) | > 100 µM (inactive)
Cn1c(=O)c2[nH]cnc2n(CC(=O)O)c1=O | > 100 µM (inactive) | > 100 µM (inactive) | > 100 µM (inactive) | – | – | > 100 µM (inactive) | > 100 µM (inactive) | > 100 µM (inactive) | – | > 100 µM (inactive) | > 100 µM (inactive) | > 100 µM (inactive) | – | > 100 µM (inactive) | – | > 100 µM (inactive)
Nc1nc(NCCO)c(N=O)c(=O)[nH]1 | > 100 µM (inactive) | > 100 µM (inactive) | > 100 µM (inactive) | – | > 100 µM (inactive) | > 100 µM (inactive) | > 100 µM (inactive) | > 100 µM (inactive) | > 100 µM (inactive) | – | > 100 µM (inactive) | – | > 100 µM (inactive) | > 100 µM (inactive) | > 100 µM (inactive) | –
O=C(Cc1c(C(=O)Nc2ccccc2)sc(C(=O)Nc2ccccc2)c1CC(=O)Nc1ccccc1)Nc1ccccc1 | > 100 µM (inactive) | > 100 µM (inactive) | > 100 µM (inactive) | > 100 µM (inactive) | > 100 µM (inactive) | > 100 µM (inactive) | > 100 µM (inactive) | > 100 µM (inactive) | > 100 µM (inactive) | – | > 100 µM (inactive) | > 100 µM (inactive) | > 100 µM (inactive) | > 100 µM (inactive) | > 100 µM (inactive) | –
CC(C)(C)c1cc(C(O)(C(F)(F)F)C(F)(F)F)c2c(c1)C(C(F)(F)F)(C(F)(F)F)OC(C(C)(C)C)N2 (configuration not stated) | 2.72 µM (inactive) | – | 3.3 µM (inactive) | 3.88 µM (inactive) | – | < 0.01 µM (active) | 4.95 µM (inactive) | 2.39 µM (inactive) | – | 1.63 µM (inactive) | 5.31 µM (inactive) | 2.64 µM (inactive) | 6.28 µM (inactive) | 10.9 µM (inactive) | 2.63 µM (inactive) | 2.24 µM (inactive)
NC(=O)NNC(=O)NC12CC3CC(CC(C3)C1)C2 | > 100 µM (inactive) | > 100 µM (inactive) | > 100 µM (inactive) | > 100 µM (inactive) | > 100 µM (inactive) | > 100 µM (inactive) | > 100 µM (inactive) | > 100 µM (inactive) | > 100 µM (inactive) | > 100 µM (inactive) | > 100 µM (inactive) | > 100 µM (inactive) | > 100 µM (inactive) | > 100 µM (inactive) | > 100 µM (inactive) | –
CCOC(=O)C12CCCC1(O)N(NC(=O)c1ccccc1)C(C)=C2C(=O)OC (configuration not stated) | > 100 µM (inactive) | > 100 µM (inactive) | > 100 µM (inactive) | > 100 µM (inactive) | > 100 µM (inactive) | > 100 µM (inactive) | > 100 µM (inactive) | > 100 µM (inactive) | > 100 µM (inactive) | > 100 µM (inactive) | > 100 µM (inactive) | > 100 µM (inactive) | > 100 µM (inactive) | > 100 µM (inactive) | > 100 µM (inactive) | –
CCCNC(=S)NNC(=O)CSc1nc(-c2ccccc2)c(-c2ccccc2)[nH]1 | 46.7 µM (inactive) | 38.1 µM (inactive) | 39 µM (inactive) | – | 23.2 µM (inactive) | 23.5 µM (inactive) | 65 µM (inactive) | – | 48.2 µM (inactive) | 24.2 µM (inactive) | 22.1 µM (inactive) | 76 µM (inactive) | 45.1 µM (inactive) | > 100 µM (inactive) | 54.6 µM (inactive) | 29.2 µM (inactive)
CC(C)(C)/N=N/C(C)(C)N=C=O | > 100 µM (inactive) | > 100 µM (inactive) | > 100 µM (inactive) | – | > 100 µM (inactive) | > 100 µM (inactive) | > 100 µM (inactive) | > 100 µM (inactive) | > 100 µM (inactive) | > 100 µM (inactive) | > 100 µM (inactive) | > 100 µM (inactive) | > 100 µM (inactive) | > 100 µM (inactive) | 60.1 µM (inactive) | > 100 µM (inactive)
COc1ccc2c(c1)C(O)(C(F)(F)F)c1cc(C(=O)C(F)(F)F)c3ccccc3c1N2 (configuration not stated) | 5.47 µM (inactive) | 7.94 µM (inactive) | 6.75 µM (inactive) | 11.9 µM (inactive) | 14.7 µM (inactive) | 16 µM (inactive) | 13.8 µM (inactive) | 3.7 µM (inactive) | 4.99 µM (inactive) | 8.99 µM (inactive) | – | 12.4 µM (inactive) | 10.5 µM (inactive) | 14.4 µM (inactive) | 13.2 µM (inactive) | –
O=C1Cc2c([nH]c3ccccc23)-c2cc(Br)ccc2N1 | > 100 µM (inactive) | > 100 µM (inactive) | > 100 µM (inactive) | > 100 µM (inactive) | > 100 µM (inactive) | > 100 µM (inactive) | > 100 µM (inactive) | > 100 µM (inactive) | > 100 µM (inactive) | > 100 µM (inactive) | > 100 µM (inactive) | > 100 µM (inactive) | > 100 µM (inactive) | > 100 µM (inactive) | > 100 µM (inactive) | –
COc1ccc2[nH]c3c(cnn4cnnc34)c2c1 | > 100 µM (inactive) | > 100 µM (inactive) | > 100 µM (inactive) | > 100 µM (inactive) | > 100 µM (inactive) | > 100 µM (inactive) | > 100 µM (inactive) | > 100 µM (inactive) | > 100 µM (inactive) | > 100 µM (inactive) | > 100 µM (inactive) | > 100 µM (inactive) | > 100 µM (inactive) | > 100 µM (inactive) | > 100 µM (inactive) | –
COC(=O)C1=CO[C@@H](C)[C@@H]2Cn3ccc4c5ccccc5nc-4c3C[C@H]12 [ALSTONINE HYDROCHLORIDE] | > 100 µM (inactive) | > 100 µM (inactive) | > 100 µM (inactive) | – | – | 92.9 µM (inactive) | > 100 µM (inactive) | 55.2 µM (inactive) | > 100 µM (inactive) | 90.6 µM (inactive) | > 100 µM (inactive) | > 100 µM (inactive) | > 100 µM (inactive) | > 100 µM (inactive) | > 100 µM (inactive) | –
